Measurements published in PMC12006963, “Application of Deuterium in an M1 Positive Allosteric Modulator Back-Up Program: The Discovery of VU6045422” (ACS Chemical Neuroscience, 2025).
Entries after “also recorded” stand apart in the source; their conditions may differ.

Experiments:
[1] = tested on: fEPSPs in layer V medial prefrontal cortex (mPFC); assay: Slice electrophysiology, long-term depression of fEPSPs; parameters: species or system mouse; details: 10 μM; layer V recording, stimulation in layer II/III; n = 9
Protocol: While ago-PAMs induce substantial long-term depression that correlates with a lack of robust procognitive efficacy,[14],[16]−[21] […] Thus, PAM 5 maintains activity dependence of PFC function (Figure 3), and it is expected to display robust precognitive efficacy.
(A) Normalized time course of the fEPSP slope during baseline, application of 10 μM VU6045422 and washout. (B) Bar graph summarizing the averaged fEPSP slope during the last 5 min of washout (gray bar in panel (A)) compared to the baseline period (ns, p > 0.05, two-tailed paired t test, n = 9).

hERG = hERG (Homo sapiens, UniProt Q12809); assay: hERG manual patch clamp; assay type: cell-based
[2] = tested on: 68 GPCRs, ion channels, and transporters; assay: Eurofins lead profiling screen, whole panel; assay type: binding; details: 10 μM; significant means >50%
CYP 2D6 = CYP 2D6 (Homo sapiens, UniProt P10635); assay: CYP isoform contribution to metabolism: 2D6; assay type: in vitro ADME
CYP 3A5 = CYP 3A5 (Homo sapiens, UniProt P20815); assay: CYP isoform contribution to metabolism: 3A5; assay type: in vitro ADME
CYP [3] = assay: Time-dependent CYP inhibition; assay type: in vitro ADME; details: in words
CYP [4] = assay: CYP induction; assay type: in vitro ADME; details: in words
[5] = Dog MTD with pharmacokinetics study; assay type: in vivo; details: for AUC / Cmax: dog MTD, plasma
From the text: To this end, we prepared a 200 g lot of PAM 5 and performed, in parallel, a dog maximum tolerated dose (MTD) with a pharmacokinetics study and a 14-day rat exploratory toxicology and toxicokinetic study, quantifying plasma Cmax and AUC for both parent 5 and metabolite 6. […] Moreover, while exposure increased with dose, it was nonlinear. […] The series was terminated based on (1) poor and less than dose-proportional increases in systemic exposure, (2) lack of a kinetic isotope effect to diminish production of 6 in dogs and rats, and (3) strong likelihood of even higher concentrations of 6 to be present in man.

Adenosine A1 = Adenosine A1 (Homo sapiens, UniProt P30542); assay: Eurofins radioligand binding
Adrenergic α1A = Adrenergic α1A (Homo sapiens, UniProt P35348); assay: Eurofins radioligand binding
Bradykinin B2 = Bradykinin B2 (Homo sapiens, UniProt P30411); assay: Eurofins radioligand binding
Dopamine D1 = Dopamine D1 (Homo sapiens, UniProt P21728); assay: Eurofins radioligand binding
Dopamine D2S = Dopamine D2S (Homo sapiens, UniProt P14416); assay: Eurofins radioligand binding
Dopamine D3 = Dopamine D3 (Homo sapiens, UniProt P35462); assay: Eurofins radioligand binding
Estrogen ERα = Estrogen ERα (Homo sapiens, UniProt P03372); assay: Eurofins radioligand binding
GABAB1A = GABAB1A (Homo sapiens, UniProt Q9UBS5); assay: Eurofins radioligand binding
Glutamate, Kainate = assay: Eurofins radioligand binding; parameters: species or system Rat
[6] = tested on: Glutamate, NMDA, Phencyclidine; assay: Eurofins radioligand binding; parameters: species or system Rat
Histamine H2 = Histamine H2 (Homo sapiens, UniProt P25021); assay: Eurofins radioligand binding
Histamine H3 = Histamine H3 (Homo sapiens, UniProt Q9Y5N1); assay: Eurofins radioligand binding
Interleukin IL-1 R1 = Interleukin IL-1 R1 (Homo sapiens, UniProt P14778); assay: Eurofins radioligand binding
[7] = target: Leukotriene, Cysteinyl CysLT1 (Homo sapiens, UniProt Q9Y271); assay: Eurofins radioligand binding
Muscarinic M1 = Muscarinic M1 (Homo sapiens, UniProt P11229); assay: Eurofins radioligand binding
Muscarinic M2 = Muscarinic M2 (Homo sapiens, UniProt P08172); assay: Eurofins radioligand binding
Neuropeptide Y Y1 = Neuropeptide Y Y1 (Homo sapiens, UniProt P25929); assay: Eurofins radioligand binding
Neuropeptide Y Y2 = Neuropeptide Y Y2 (Homo sapiens, UniProt P49146); assay: Eurofins radioligand binding
[8] = target: Nicotinic Acetylcholine α1, Bungarotoxin (Homo sapiens, UniProt P02708+P07510+Q07001); assay: Eurofins radioligand binding; details: read-out: % Inhibition at 10 µM
Opiate δ1 (OP1, DOP) = Opiate δ1 (OP1, DOP) (Homo sapiens, UniProt P41143); assay: Eurofins radioligand binding
Opiate κ (OP2, KOP) = Opiate κ (OP2, KOP) (Homo sapiens, UniProt P41145); assay: Eurofins radioligand binding
Phorbol Ester = assay: Eurofins radioligand binding; parameters: species or system Mouse
Potassium Channel [KATP] = Potassium Channel [KATP] (Cricetus cricetus, UniProt Q09427); assay: Eurofins radioligand binding; parameters: species or system Hamster
Prostanoid EP4 = Prostanoid EP4 (Homo sapiens, UniProt P35408); assay: Eurofins radioligand binding
[9] = target: Transporter, Dopamine (DAT) (Homo sapiens, UniProt Q01959); assay: Eurofins radioligand binding
[10] = target: Transporter, Norepinephrine (NET) (Homo sapiens, UniProt P23975); assay: Eurofins radioligand binding
[11] = target: Transporter, Serotonin (SERT) (Homo sapiens, UniProt P31645); assay: Eurofins radioligand binding

Sequence of Estrogen ERα (P03372 whole entry): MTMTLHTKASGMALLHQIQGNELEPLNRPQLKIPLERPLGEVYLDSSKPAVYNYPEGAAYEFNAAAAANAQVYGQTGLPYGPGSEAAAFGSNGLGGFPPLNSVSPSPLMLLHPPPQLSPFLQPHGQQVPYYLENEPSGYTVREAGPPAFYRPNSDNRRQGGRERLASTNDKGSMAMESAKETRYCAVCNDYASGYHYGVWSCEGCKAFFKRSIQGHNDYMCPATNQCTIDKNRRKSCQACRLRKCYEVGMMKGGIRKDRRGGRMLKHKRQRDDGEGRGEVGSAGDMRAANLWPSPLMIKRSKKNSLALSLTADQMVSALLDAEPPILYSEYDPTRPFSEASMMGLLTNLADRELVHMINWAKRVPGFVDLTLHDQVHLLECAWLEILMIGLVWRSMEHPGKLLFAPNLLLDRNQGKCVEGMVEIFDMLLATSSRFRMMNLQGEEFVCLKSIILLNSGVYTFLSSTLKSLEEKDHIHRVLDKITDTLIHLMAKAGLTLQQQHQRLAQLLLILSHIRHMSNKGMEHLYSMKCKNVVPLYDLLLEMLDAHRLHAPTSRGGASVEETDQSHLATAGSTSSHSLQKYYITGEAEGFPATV
Sequence of Dopamine D3 (P35462 whole entry): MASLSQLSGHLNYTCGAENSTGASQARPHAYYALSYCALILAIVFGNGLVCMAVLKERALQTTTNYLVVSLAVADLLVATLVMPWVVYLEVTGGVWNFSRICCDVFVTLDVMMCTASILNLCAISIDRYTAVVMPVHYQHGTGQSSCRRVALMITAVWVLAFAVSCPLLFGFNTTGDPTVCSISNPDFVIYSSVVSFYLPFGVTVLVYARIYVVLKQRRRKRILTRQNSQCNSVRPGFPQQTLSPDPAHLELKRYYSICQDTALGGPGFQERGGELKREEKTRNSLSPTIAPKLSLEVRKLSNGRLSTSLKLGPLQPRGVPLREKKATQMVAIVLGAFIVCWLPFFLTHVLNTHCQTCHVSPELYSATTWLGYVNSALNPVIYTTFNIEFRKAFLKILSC
Sequence of CYP 2D6 (P10635 whole entry, canonical isoform): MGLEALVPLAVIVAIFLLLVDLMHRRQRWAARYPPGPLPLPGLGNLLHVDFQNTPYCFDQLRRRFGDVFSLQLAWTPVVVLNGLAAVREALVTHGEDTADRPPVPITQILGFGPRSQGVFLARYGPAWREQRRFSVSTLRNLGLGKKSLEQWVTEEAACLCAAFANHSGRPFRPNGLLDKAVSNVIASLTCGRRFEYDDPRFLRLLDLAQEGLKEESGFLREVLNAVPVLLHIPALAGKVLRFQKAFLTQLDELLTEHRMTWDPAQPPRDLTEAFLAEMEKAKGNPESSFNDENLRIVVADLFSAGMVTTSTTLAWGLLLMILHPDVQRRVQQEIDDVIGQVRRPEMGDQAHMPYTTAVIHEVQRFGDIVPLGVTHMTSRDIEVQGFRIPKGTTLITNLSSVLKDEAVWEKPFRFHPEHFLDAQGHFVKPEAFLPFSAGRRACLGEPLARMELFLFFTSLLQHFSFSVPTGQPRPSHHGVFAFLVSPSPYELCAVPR
Sequence of Dopamine D2S (P14416 1-414 isoform P14416-2): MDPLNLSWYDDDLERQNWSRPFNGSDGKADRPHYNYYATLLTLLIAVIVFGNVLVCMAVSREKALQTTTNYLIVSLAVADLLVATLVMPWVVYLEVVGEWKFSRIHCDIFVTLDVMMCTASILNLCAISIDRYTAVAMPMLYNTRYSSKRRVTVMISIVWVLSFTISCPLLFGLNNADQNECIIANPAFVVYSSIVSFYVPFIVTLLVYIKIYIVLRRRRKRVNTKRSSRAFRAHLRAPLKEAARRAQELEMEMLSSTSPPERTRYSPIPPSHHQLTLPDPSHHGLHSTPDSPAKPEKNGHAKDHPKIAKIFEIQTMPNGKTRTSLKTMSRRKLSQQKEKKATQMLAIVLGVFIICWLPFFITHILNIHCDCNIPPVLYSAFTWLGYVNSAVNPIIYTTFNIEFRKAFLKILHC
Sequence of Muscarinic M1 (P11229 whole entry): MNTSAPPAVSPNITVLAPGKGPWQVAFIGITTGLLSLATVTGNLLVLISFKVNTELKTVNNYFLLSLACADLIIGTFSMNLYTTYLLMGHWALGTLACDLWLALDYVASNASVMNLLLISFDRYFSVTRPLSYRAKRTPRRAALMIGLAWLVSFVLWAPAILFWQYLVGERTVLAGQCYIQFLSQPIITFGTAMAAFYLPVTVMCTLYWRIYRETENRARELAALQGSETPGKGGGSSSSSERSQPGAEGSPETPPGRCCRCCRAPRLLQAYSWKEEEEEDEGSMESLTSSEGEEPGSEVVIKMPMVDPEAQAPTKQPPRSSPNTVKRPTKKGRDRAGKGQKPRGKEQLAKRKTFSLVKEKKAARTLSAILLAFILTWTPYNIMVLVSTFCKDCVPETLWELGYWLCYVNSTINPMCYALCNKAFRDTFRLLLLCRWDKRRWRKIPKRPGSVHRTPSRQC
Sequence of Leukotriene, Cysteinyl CysLT1 (Q9Y271 whole entry): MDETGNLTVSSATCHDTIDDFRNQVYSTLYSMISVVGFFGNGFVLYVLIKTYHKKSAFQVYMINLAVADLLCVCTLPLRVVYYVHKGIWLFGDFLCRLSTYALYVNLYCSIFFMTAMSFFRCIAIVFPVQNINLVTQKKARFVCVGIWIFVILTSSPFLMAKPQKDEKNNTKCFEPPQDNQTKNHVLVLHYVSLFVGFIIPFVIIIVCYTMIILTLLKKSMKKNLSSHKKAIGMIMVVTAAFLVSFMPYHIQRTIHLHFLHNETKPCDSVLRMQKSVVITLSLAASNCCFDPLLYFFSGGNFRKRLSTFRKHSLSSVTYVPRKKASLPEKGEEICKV
Sequence of Transporter, Norepinephrine (NET) (P23975 whole entry): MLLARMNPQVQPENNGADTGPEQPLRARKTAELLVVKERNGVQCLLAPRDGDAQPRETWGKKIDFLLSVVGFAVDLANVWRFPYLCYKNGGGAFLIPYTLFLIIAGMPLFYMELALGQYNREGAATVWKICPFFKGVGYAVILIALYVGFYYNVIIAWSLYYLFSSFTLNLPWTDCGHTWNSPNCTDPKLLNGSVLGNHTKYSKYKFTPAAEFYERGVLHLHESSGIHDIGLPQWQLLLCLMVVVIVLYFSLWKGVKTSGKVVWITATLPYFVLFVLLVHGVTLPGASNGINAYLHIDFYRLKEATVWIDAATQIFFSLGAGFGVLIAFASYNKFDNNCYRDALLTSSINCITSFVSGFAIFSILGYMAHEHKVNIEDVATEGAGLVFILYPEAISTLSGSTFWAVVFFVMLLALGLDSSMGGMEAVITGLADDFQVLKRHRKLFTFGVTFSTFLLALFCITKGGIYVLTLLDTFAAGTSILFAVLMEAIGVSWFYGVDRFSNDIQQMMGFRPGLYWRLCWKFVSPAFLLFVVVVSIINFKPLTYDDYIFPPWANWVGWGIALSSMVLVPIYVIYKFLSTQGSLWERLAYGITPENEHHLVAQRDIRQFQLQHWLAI
Sequence of Bradykinin B2 (P30411 whole entry): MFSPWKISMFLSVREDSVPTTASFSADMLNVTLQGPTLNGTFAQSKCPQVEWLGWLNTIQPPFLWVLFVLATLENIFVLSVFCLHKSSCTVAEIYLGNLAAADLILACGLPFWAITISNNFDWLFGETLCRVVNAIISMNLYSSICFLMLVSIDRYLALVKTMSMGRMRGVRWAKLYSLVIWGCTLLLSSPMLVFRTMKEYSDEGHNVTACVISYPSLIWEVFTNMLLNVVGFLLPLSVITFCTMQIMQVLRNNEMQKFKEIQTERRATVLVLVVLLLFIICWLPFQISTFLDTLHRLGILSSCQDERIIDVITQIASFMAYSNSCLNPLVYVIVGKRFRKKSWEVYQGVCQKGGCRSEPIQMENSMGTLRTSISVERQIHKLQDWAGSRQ
Sequence of Histamine H2 (P25021 whole entry): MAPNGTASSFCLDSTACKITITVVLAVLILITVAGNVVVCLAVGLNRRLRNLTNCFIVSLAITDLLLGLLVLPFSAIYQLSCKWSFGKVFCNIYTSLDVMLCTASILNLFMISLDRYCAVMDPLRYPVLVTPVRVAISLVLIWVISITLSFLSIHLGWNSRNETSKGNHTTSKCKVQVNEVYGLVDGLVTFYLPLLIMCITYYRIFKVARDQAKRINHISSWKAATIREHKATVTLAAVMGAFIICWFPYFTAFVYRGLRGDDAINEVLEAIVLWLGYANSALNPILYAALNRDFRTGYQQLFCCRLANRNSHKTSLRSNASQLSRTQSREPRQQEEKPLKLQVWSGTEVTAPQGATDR
Sequence of Opiate δ1 (OP1, DOP) (P41143 whole entry): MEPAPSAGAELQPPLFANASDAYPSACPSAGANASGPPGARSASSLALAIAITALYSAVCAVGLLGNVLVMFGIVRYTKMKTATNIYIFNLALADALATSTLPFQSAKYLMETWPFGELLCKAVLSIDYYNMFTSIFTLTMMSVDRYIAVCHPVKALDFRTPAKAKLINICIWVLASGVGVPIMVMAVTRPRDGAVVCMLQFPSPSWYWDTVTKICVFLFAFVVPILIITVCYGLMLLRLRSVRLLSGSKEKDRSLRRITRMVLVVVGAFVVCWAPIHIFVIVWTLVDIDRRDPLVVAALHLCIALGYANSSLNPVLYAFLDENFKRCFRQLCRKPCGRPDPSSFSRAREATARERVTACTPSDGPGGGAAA
Sequence of Neuropeptide Y Y1 (P25929 whole entry): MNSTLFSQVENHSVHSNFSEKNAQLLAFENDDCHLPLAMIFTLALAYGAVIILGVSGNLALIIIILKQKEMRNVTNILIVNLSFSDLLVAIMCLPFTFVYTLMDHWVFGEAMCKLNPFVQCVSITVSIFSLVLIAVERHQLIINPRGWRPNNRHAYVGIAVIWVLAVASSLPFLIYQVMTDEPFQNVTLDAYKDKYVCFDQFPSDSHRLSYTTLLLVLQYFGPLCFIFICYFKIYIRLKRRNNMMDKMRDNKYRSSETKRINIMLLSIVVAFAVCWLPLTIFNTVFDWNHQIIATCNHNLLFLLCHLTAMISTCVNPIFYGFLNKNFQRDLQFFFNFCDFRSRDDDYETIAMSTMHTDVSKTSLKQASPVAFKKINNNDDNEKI

[2H]C1([2H])c2ncccc2C(=O)N1Cc1c(F)cc(-c2cccc3nn(C([2H])([2H])[2H])cc23)cc1F [compound 5]
change in fEPSPs / long-term depression [1]: no significant changes; also recorded: did not induce a significant long-term depression
IC50 (hERG): 21 µM
activity in Eurofins lead profiling screen, whole panel [2]: no significant activity
contribution of CYP 2D6 to metabolism (CYP 2D6): 1.6%
contribution of CYP 3A5 to metabolism (CYP 3A5): 5.8%
time-dependent CYP inhibition liability (CYP [3]): no time-dependent CYP inhibition or CYP induction liabilities
CYP induction liability (CYP [4]): no time-dependent CYP inhibition or CYP induction liabilities
AUC ([5]; 30 mg/kg PO of 5): 34900 ng·h/mL
Cmax ([5]; 30 mg/kg PO of 5): 2400 ng/mL
AUC ([5]; 300 mg/kg PO of 5): 68000 ng·h/mL
Cmax ([5]; 300 mg/kg PO of 5): 3620 ng/mL
AUC ([5]; 1000 mg/kg PO of 5): 103000 ng·h/mL
Cmax ([5]; 1000 mg/kg PO of 5): 5560 ng/mL
tolerability in dog MTD ([5]; dog, in vivo, po): well-tolerated
inhibition at 10 µM (Adenosine A1): 30%
inhibition at 10 µM (Adrenergic α1A): 8%
inhibition at 10 µM (Bradykinin B2): 2%
inhibition at 10 µM (Dopamine D1): -3%
inhibition at 10 µM (Dopamine D2S): 2%
inhibition at 10 µM (Dopamine D3): -1%
inhibition at 10 µM (Estrogen ERα): 10%
inhibition at 10 µM (GABAB1A): -5%
% Inhibition at 10 µM (Glutamate, Kainate): 13%
% Inhibition at 10 µM [6]: -1%
inhibition at 10 µM (Histamine H2): 2%
inhibition at 10 µM (Histamine H3): 5%
inhibition at 10 µM (Interleukin IL-1 R1): 8%
inhibition at 10 µM [7]: -9%
inhibition at 10 µM (Muscarinic M1): 0%
inhibition at 10 µM (Muscarinic M2): 5%
inhibition at 10 µM (Neuropeptide Y Y1): -13%
inhibition at 10 µM (Neuropeptide Y Y2): -3%
inhibition at 10 µM [8]: 8%
inhibition at 10 µM (Opiate δ1 (OP1, DOP)): 1%
inhibition at 10 µM (Opiate κ (OP2, KOP)): 9%
% Inhibition at 10 µM (Phorbol Ester): 5%
inhibition at 10 µM (Potassium Channel [KATP]): 24%
inhibition at 10 µM (Prostanoid EP4): -3%
inhibition at 10 µM [9]: 32%
inhibition at 10 µM [10]: 12%
inhibition at 10 µM [11]: -4%
